Laboratory results from patent US20240180989A1, “LIGUSTRUM LUCIDUM EXTRACT USEFUL FOR THE TREATMENT AND/OR CARE OF THE SKIN” (Lubrizol Advanced Materials, Inc., priority 2021, published 2024).

Assays:
[1] = system: peroxynitrite production in Human epidermal keratinocytes (HEK); test: Quantification of peroxynitrite production in human epidermal keratinocytes; assay type: cell-based; conditions: 1 hour, per cell
Method: Human epidermal keratinocytes (HEK) are seeded in 96-well plates at a density of 3×10^4 cells/well in keratinocyte growth medium supplemented with Mix C39016-CaCl2 solution (Promocell). After 24 hours incubation, medium is replaced with fresh culture medium with scalar dilutions of the subcritical water extract at 160° C. of Example 2. Treatment is continued for 24 hours and cells treated with medium alone are used as basal control. After 24 hours incubation, peroxynitrite production is measured by a fluorescence approach with Peroxynitrite assay kit (Abcam) following the manufacturer's instructions. In brief, cells are treated with 10 μl/well sensor green working solution during 1 hour in the medium. Cells treated with SIN-1 (Sigma) 11 mM or 5.76 mM during 1 hour in combination with sensor green solution are used as a positive control of peroxynitrite production. SIN-1 (Sigma) is a nitric oxide donor. After 1-hour incubation, fluorescence is measured with an […] microplate reader (Clariostar, BMG) at excitation 490 nm and emission 530 nm. […] Cell nuclei number is determined with a confocal microscopy Operetta (PerkinElmer). Peroxynitrite fluorescence intensity is normalized to cell number for each condition.
The results in Table 8 are expressed as a percentage of peroxynitrite per cell normalized by basal condition.

[2] = system: arginase; test: Arginase activity reduction in human epidermal keratinocytes (colorimetric Arginase Activity kit); assay type: cell-based; conditions: 1 mM, donor
Method: Human epidermal keratinocytes (HEK) of donor (Tebu Bio), donor (Promocell) and donor (Promocell) are seeded in 6-well plates at a density of 3×10^5 cells/well in keratinocyte growth medium supplemented with Mix C39016-CaCl2 solution (Promocell). […] The donor's cells treated with S-(2-Boronoethyl)-L-cysteine hydrochloride (BEC, Sigma) 1 mM are used as positive control of arginase inhibition, and the donor's, donor's and 26-year-old donor's cells treated with medium alone are used as basal control of arginase activity at different ages. Treatment is continued for 24 hours. After 24 hours, cells are lysed and are analyzed by a colorimetric Arginase Activity kit (Abcam) according to manufacturer's instructions. […] Absorbance is measured by using a microplate reader (Clariostar, BMG) set to 570 nm in a kinetic mode for 30 minutes. […] Arginase activity is calculated in the exponential phase of the kinetic for each sample with the following equation: AOD═(OD2−ODBG2)−(OD1−ODBG1); where: OD1 and OD2 is the sample reading at time T1 and T2 respectively, ODBG1 and ODBG2 is the sample background reading at time T1 and T2 respectively.
Total protein amount of each sample is determined using a Pierce BCA protein assay kit (Thermo fisher) according to the manufacturer's protocol. […] Afterwards, color change is measured with an absorbance microplate reader (Clariostar, BMG) at 562 nm. […]

| SMILES | Peroxynitrite production MEAN respect basal condition ([1]; 5.76 mM) [%] | Peroxynitrite production MEAN respect basal condition ([1]; 11 mM) [%] | Arginase activity MEAN subtracting basal condition and normalizing respect basal condition of cells [2] [%] | Arginase activity MEAN respect basal condition of cells ([2]; 24 h) [%] |
| --- | --- | --- | --- | --- |
| [NH-]c1c[n+](N2CCOCC2)no1 [SIN-1] | 2379.00 | 1654.00 | – | – |
| Cl.N[C@@H](CSCCB(O)O)C(=O)O [BEC, S-(2-Boronoethyl)-L-cysteine hydrochloride] | – | – | −10.58 | 70.10 |
